Assay results as given in patent publication US20080234286A1 (CHEMAGIS Ltd., priority 2007, published 2008).
Counter-ions that a name gives are not always drawn.

How the values were obtained:
Assay type in all cases: physicochemical
[1] = Physical nature / hygroscopicity of the obtained solid (observation); conditions: as obtained after drying
[2] = Water content by Karl Fischer titration
Method: The water content measurements were carried out using a Karl Fischer Titrator (Mettler Toledo Model DL-53), according to standard procedures.

[3] = Bulk and tapped density (Vankel tapped density tester)
Method: Bulk and tapped densities were measured using Varian's Vankel tapped density tester model 50-2300.

[4] = Storage stability of packed compressed tablets (amorphous form, purity by HPLC)
Source text: The term “remains stable”, as defined herein, refers to lack of formation of impurities, while being stored as described herein (see Example 11).
The compressed tablets were packed in a packing comprising internal sealed polyethylene bag, containing the tablets, which was inserted into a middle opaque (e.g., black) polyethylene bag, which was then sealed, wherein the packaging was sealed effectively to prevent penetration of humidity and/or oxygen. The polyethylene bag was packed and sealed in a laminated aluminum bag containing silica.
The samples were packed in the above-mentioned packaging and stored at room temperate and at 40° C. Samples were withdrawn periodically after 5, 8, 13 and 30 days and the purity of the withdrawn material was checked by HPLC.

[5] = Retention of amorphous form after compressing at high pressure, checked by X-ray diffractometer; conditions: about 7.5 tons/cm^2 for 15 minutes
Method: X-ray diffraction data were acquired using a PHILIPS X-ray diffractometer model PW1050-70. System description: Kα1=1.54178 Å, voltage 40 kV, current 28 mA, diversion slit=1°, receiving slit=0.2 mm, scattering slit=1° with a Graphite monochromator. Measurements of 2θ values typically are accurate to within ±0.2 degrees. Experiment parameters: pattern measured between 2θ=3° and 2θ=30° with 0.05° increments; count time was 0.5 second per increment. […]
The four samples, marked as 1-4, were checked by X-ray diffractometer after compressing and the results are detailed in Table 5.

SMILES | % water in the product [2] [%] | other results
Cc1ccc(NC(=O)c2ccc(CN3CCN(C)CC3)cc2)cc1Nc1nccc(-c2cccnc2)n1 [Example 1, imatinib mesylate] | 4.1 | physical nature of the obtained solid (hygroscopicity, flow) [1]: non-hygroscopic and free-flowing
Cc1ccc(NC(=O)c2ccc(CN3CCN(C)CC3)cc2)cc1Nc1nccc(-c2cccnc2)n1 [Reference Example 1, imatinib mesylate, reference compound] | 2.2 | physical nature of the obtained solid (hygroscopicity, flow) [1]: glassy deliquescent material
Cc1ccc(NC(=O)c2ccc(CN3CCN(C)CC3)cc2)cc1Nc1nccc(-c2cccnc2)n1 [Example 7, imatinib mesylate] | 4.3 | 
Cc1ccc(NC(=O)c2ccc(CN3CCN(C)CC3)cc2)cc1Nc1nccc(-c2cccnc2)n1 [Example 3, imatinib mesylate] | 4.1 | 
Cc1ccc(NC(=O)c2ccc(CN3CCN(C)CC3)cc2)cc1Nc1nccc(-c2cccnc2)n1 [Example 2, imatinib mesylate] |  | bulk density [3]: 0.29 g/mL; tapped density [3]: 0.39 g/mL
Cc1ccc(NC(=O)c2ccc(CN3CCN(C)CC3)cc2)cc1Nc1nccc(-c2cccnc2)n1 [Reference Example 2, imatinib mesylate, reference compound] | 1.7 | physical nature of the obtained solid (hygroscopicity, flow) [1]: very electrostatic and tended to agglomerate
Cc1ccc(NC(=O)c2ccc(CN3CCN(C)CC3)cc2)cc1Nc1nccc(-c2cccnc2)n1 [Example 6, imatinib mesylate] | 3.8 | 
Cc1ccc(NC(=O)c2ccc(CN3CCN(C)CC3)cc2)cc1Nc1nccc(-c2cccnc2)n1 [amorphous imatinib mesylate, imatinib mesylate] |  | stability and amorphous form on storage ([4]; stored at 25° C. for at least a month): remains stable and maintains its amorphous form; stability and amorphous form on storage ([4]; stored at 40° C. for at least a month): remains stable and maintains its amorphous form; solid form after being compressed [5]: remains in amorphous form
Cc1ccc(NC(=O)c2ccc(CN3CCN(C)CC3)cc2)cc1Nc1nccc(-c2cccnc2)n1 [Example 9, imatinib mesylate] | 4.9 | 
Cc1ccc(NC(=O)c2ccc(CN3CCN(C)CC3)cc2)cc1Nc1nccc(-c2cccnc2)n1 [Example 8, imatinib mesylate] | 3.8 | 
Cc1ccc(NC(=O)c2ccc(CN3CCN(C)CC3)cc2)cc1Nc1nccc(-c2cccnc2)n1 [Example 4, imatinib mesylate] | 3.7 | 
Cc1ccc(NC(=O)c2ccc(CN3CCN(C)CC3)cc2)cc1Nc1nccc(-c2cccnc2)n1 [Example 10, imatinib mesylate] | 3.2 | 
Cc1ccc(NC(=O)c2ccc(CN3CCN(C)CC3)cc2)cc1Nc1nccc(-c2cccnc2)n1 [Example 5, imatinib mesylate] | 4.8 | 
